Laboratory results as given in patent US7863278B2, “Isethionate salt of a selective CDK4 inhibitor” (Warner-Lambert CompanyLLC, priority 2003, dated 2011).
Where two headings read alike, the source gives them in different places.

Assays:
neointima formation = settings: rats; cited from earlier work
water solubility = assay type: physicochemical; settings: for solubility at 14 h: thermodynamic from solid
Description: The other isethionate salt forms were not evaluated for metastable solubility. […] See Table 5 for a list of HPLC conditions.

pKa of conjugate acid = assay type: physicochemical
Description: The free base (Formula 1) is a dibasic compound, which may form both mono- and di-acid addition salts. Its conjugate acid has pKas of 7.3 and 4.1, so comparatively strong acids are necessary for generating the di-salt. Though it may be possible to form a di-isethionate salt of the compound of Formula 1, the mono-isethionate salt appears to be more useful since it requires less counter ion.

[1] = bioavailability in animal studies; assay type: in vivo
Description: . However, moisture uptake studies reveal that, even at low relative humidity (10% RH), the di-HCl salt absorbs water in an amount greater than about 2% of its mass, making it unsuitable for use in a solid drug product. […]. However, the process for preparing the mono-HCl salt yields partially crystalline drug substance, indicating potential problems with process scale-up. Other salt forms of the compound of Formula 1 are thus needed.

COc1ccc(CNc2nc(N(CCO)CCO)nc3c2ncn3C(C)C)cc1 [CVT-313]
inhibition of neointima formation (neointima formation): greater than 80%

CC(=O)c1c(C)c2cnc(Nc3ccc(N4CCNCC4)cn3)nc2n(C2CCCC2)c1=O [Formula 1, 6-acetyl-8-cyclopentyl-5-methyl-2-(5-piperazin-1-yl-pyridin-2-ylamino)-8H-pyrido[2,3-d]pyrimidin-7-one]
Solubility mgA/mL (water solubility; free base final pH 7.9, 14 h equilibration): 0.009 mgA/mL
solubility at 14 h (water solubility; pH 7.9, water, read-out: free base solubility): 9.2 µg/mL
solubility at 14 h (water solubility; read-out: water solubility): 9 µg/mL
pKa (pKa of conjugate acid; read-out: pKa of conjugate acid (first)): 7.3
pKa (pKa of conjugate acid; read-out: pKa of conjugate acid (second)): 4.1
bioavailability in animal studies [1]: low bioavailability

CC(=O)c1c(C)c2cnc(Nc3ccc(N4CCNCC4)cn3)nc2n(C2CCCC2)c1=O.Cl.Cl [di-HCl salt]
water solubility (in words) (water solubility): adequate water solubility
